Test results taken from patent US20250049970A1, “DLL3 TARGETING PEPTIDES AND CONSTRUCTS THEREOF” (MARIANA ONCOLOGY INC., priority 2023, published 2025).
pKd: −log10 of the molar value. *1 amine or outer side, *2 acyl side, *3 side chain or, on linkers, in order; H or OH if unused. Where a SMILES comes first, the peptide text is derived from it. Bridges are numbered along the chain shown (N, C = ends). [ ]: non-standard residue; d: D form. The star is where a group is joined. X7 = O=C(O)CN1CCN(CC(=O)O)CCN(CC(=O)N[C@H]2CC[C@H](CC(=O)*)CC2)CCN(CC(=O)O)CC1; Ala(1-CH2CO2H-4-piperidyl) = N[C@@H](CC1CCN(CC(=O)O)CC1)C(=O)O; Ala(piperidin-4-yl) = O=C([C@H](CC1CCN([*:3])CC1)N[*:1])[*:2]; DOTA = O=C(O)CN1CCN(CC(=O)O)CCN(CC(=O)*)CCN(CC(=O)O)CC1; X5 = O=C(Cc1ccc(Br)cc1)NCCOCCOCCOCCOCCOCCOCCOCCOCC(=O)*; Trp(7-Me) = Cc1cccc2c(C[C@H](N)C(=O)O)c[nH]c12; Bip = N[C@@H](Cc1ccc(-c2ccccc2)cc1)C(=O)O; NMeW = CN[C@@H](Cc1c[nH]c2ccccc12)C(=O)O; 2Nal = N[C@@H](Cc1ccc2ccccc2c1)C(=O)O; NMetBuAla = CN[C@@H](CC(C)(C)C)C(=O)O; NMeT = CN[C@H](C(=O)O)[C@@H](C)O; tBuAla = CC(C)(C)C[C@H](N)C(=O)O; Cha = N[C@@H](CC1CCCCC1)C(=O)O; Chg = N[C@H](C(=O)O)C1CCCCC1; NMeNle = CCCC[C@H](NC)C(=O)O; Tle = CC(C)(C)[C@H](N)C(=O)O; Nle = CCCC[C@H](N)C(=O)O; CH2 = C([*:1])[*:2]

What follows are molecules tested against T1, DLL3 (Homo sapiens, UniProt Q9NYJ7) (assay: SPR KD, biotinylated human DLL3 on streptavidin chip (Table 8)). Conditions: SPR KD, biotinylated human DLL3 on streptavidin sensor chip, 25° C., 1:1 binding model.
T1 sequence (Q9NYJ7 27-618): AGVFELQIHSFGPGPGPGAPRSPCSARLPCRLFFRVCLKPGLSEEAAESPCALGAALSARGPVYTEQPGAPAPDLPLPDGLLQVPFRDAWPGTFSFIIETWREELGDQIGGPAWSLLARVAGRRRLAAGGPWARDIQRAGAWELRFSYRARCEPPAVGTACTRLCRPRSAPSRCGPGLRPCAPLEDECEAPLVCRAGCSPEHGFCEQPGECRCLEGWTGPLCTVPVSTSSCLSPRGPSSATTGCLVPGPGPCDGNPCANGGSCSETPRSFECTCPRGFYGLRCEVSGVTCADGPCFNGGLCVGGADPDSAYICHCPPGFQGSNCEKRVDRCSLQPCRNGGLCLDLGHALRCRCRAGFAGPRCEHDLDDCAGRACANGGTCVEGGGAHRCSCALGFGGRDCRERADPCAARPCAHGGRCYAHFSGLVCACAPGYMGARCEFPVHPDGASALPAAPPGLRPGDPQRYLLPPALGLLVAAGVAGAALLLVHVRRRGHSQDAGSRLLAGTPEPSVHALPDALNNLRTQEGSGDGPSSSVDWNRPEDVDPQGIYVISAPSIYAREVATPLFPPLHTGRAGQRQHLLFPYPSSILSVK
Design: biotin (biotinylated)
Excerpt: Biotinylated target ligand human DLL3 was immobilized on a streptavidin sensor chip. A reference surface was set up for nonspecific binding and refractive index changes. […] Sensorgram curves were fitted with 1:1 binding model, and affinity and kinetic parameters were obtained using Biacore Insight evaluation 4.0. software.

Structure (SMILES)	pKd
CC(=O)N[C@@H](Cc1c[nH]c2ccccc12)C(=O)N[C@H](C(=O)N[C@H](C(=O)N[C@H]1CSSC[C@@H](C(=O)N[C@@H](Cc2c[nH]c3ccccc23)C(=O)N2CCC[C@H]2C(=O)N[C@H](CCCCNC(=O)COCCOCCOCCOCCOCCOCCOCCOCCNC(=O)Cc2ccc(Br)cc2)C(N)=O)NC(=O)[C@H](CC(=O)O)NC(=O)[C@H](CCCCNC(=O)CN2CCN(CC(=O)O)CCN(CC(=O)O)CCN(CC(=O)O)CC2)NC(=O)[C@H](Cc2ccc3ccccc3c2)NC(=O)[C@H](CC(N)=O)NC(=O)[C@H](CC2CCNCC2)NC1=O)C1CCCCC1)[C@@H](C)O [compound 421] (Ac-WT[Chg]C[Ala(piperidin-4-yl)]N[2Nal]K(DOTA)DCWP[dK](X5)-NH2; disulfide 4-10)	> 9.00

Same assay, conditions: biotinylated human DLL3 on streptavidin sensor chip, 25° C., 1:1 binding model; read-out: SPR KD

Structure (SMILES)	pKd
CC[C@H](C)[C@H](NC(=O)[C@@H](NC(=O)[C@H](Cc1ccc(-c2ccccc2)cc1)NC(C)=O)[C@@H](C)O)C(=O)N[C@H]1CSSC[C@@H](C(=O)N[C@@H](Cc2c[nH]c3ccccc23)C(=O)N2CCC[C@H]2C(=O)O)NC(=O)[C@H](CC(=O)O)NC(=O)[C@H](Cc2c[nH]cn2)NC(=O)[C@H](Cc2c[nH]c3ccccc23)NC(=O)[C@H](CC(N)=O)NC(=O)[C@H](CC(N)=O)NC1=O [compound 333, Ac-(BIP)-T-I-C(3)-N-N-W-H-D-C(3)-W-P-CONH2] (Ac-[Bip]TICNNWHDCWP-OH; disulfide 4-10)	6.52 to 7.00
CC(=O)N[C@@H](Cc1c[nH]c2ccccc12)C(=O)N[C@H](C(=O)N[C@H](C(=O)N[C@H]1CSSC[C@@H](C(=O)N[C@@H](Cc2c[nH]c3ccccc23)C(=O)N2CCC[C@H]2C(N)=O)NC(=O)[C@H](CC(=O)O)NC(=O)[C@H](CCCCNC(=O)CN2CCN(CC(=O)O)CCN(CC(=O)O)CCN(CC(=O)O)CC2)NC(=O)[C@H](Cc2ccc3ccccc3c2)NC(=O)[C@H](CC(N)=O)NC(=O)C(CN2CCOCC2)NC1=O)C(C)(C)C)[C@@H](C)O (stereo partly drawn) [compound 309, Ac-W-T-(Tbg)-C(3)-[3-(1-morpholinyl)-Ala]-N-(2Nal)-Lys(DOTA)-D-C(3)-W-P-CONH2]	> 9.00
CC(=O)N[C@@H](Cc1c[nH]c2ccccc12)C(=O)N[C@H](C(=O)N[C@H](C(=O)N[C@H]1CSSC[C@@H](C(=O)N[C@@H](Cc2c[nH]c3ccccc23)C(=O)N2CCC[C@H]2C(N)=O)NC(=O)[C@H](CC(=O)O)NC(=O)[C@H](Cc2cnc[nH]2)NC(=O)[C@H](Cc2c[nH]c3ccccc23)NC(=O)[C@H](CC(N)=O)NC(=O)[C@H](CC(N)=O)NC1=O)C(C)(C)C)[C@@H](C)O [compound 336, Ac-W-T-(Tbg)-C(3)-N-N-W-H-D-C(3)-W-P-CONH2] (Ac-WT[Tle]CNNWHDCWP-NH2; disulfide 4-10)	8.00 to 9.00
CC[C@H](C)[C@H](NC(=O)[C@H]([C@@H](C)O)N(C)C(=O)[C@H](Cc1c[nH]c2ccccc12)NC(C)=O)C(=O)N[C@H]1CSSC[C@@H](C(=O)N[C@@H](Cc2c[nH]c3ccccc23)C(=O)N2CCC[C@H]2C(N)=O)NC(=O)[C@H](CC(=O)O)NC(=O)[C@H](Cc2cnc[nH]2)NC(=O)[C@H](Cc2c[nH]c3ccccc23)NC(=O)[C@H](CC(N)=O)NC(=O)[C@H](CC(N)=O)NC1=O [compound 383, Ac-W-(NmeT)-I-C(3)-N-N-W-H-D-C(3)-W-P-CONH2] (Ac-W[NMeT]ICNNWHDCWP-NH2; disulfide 4-10)	6.52 to 7.00
CC[C@H](C)[C@H](NC(=O)[C@@H](NC(=O)[C@H](Cc1c[nH]c2ccccc12)N(C)C(C)=O)[C@@H](C)O)C(=O)N[C@H]1CSSC[C@@H](C(=O)N[C@@H](Cc2c[nH]c3ccccc23)C(=O)N2CCC[C@H]2C(=O)O)NC(=O)[C@H](CC(=O)O)NC(=O)[C@H](Cc2c[nH]cn2)NC(=O)[C@H](Cc2c[nH]c3ccccc23)NC(=O)[C@H](CC(N)=O)NC(=O)[C@H](CC(N)=O)NC1=O [compound 382, Ac-(NmeW)-T-I-C(3)-N-N-W-H-D-C(3)-W-P-CONH2] (Ac-[NMeW]TICNNWHDCWP-OH; disulfide 4-10)	7.00 to 8.00
CC(=O)N[C@@H](Cc1c[nH]c2ccccc12)C(=O)N[C@H](C(=O)N[C@@H](CC1CCCCC1)C(=O)N[C@H]1CSSC[C@@H](C(=O)N[C@@H](Cc2c[nH]c3ccccc23)C(=O)N2CCC[C@H]2C(N)=O)NC(=O)[C@H](CC(=O)O)NC(=O)[C@H](Cc2cnc[nH]2)NC(=O)[C@H](Cc2c[nH]c3ccccc23)NC(=O)[C@H](CC(N)=O)NC(=O)[C@H](CC(N)=O)NC1=O)[C@@H](C)O [compound 340, Ac-W-T-(CHA)-C(3)-N-N-W-H-D-C(3)-W-P-CONH2] (Ac-WT[Cha]CNNWHDCWP-NH2; disulfide 4-10)	8.00 to 9.00
CC[C@H](C)[C@H](NC(=O)[C@H](C)NC(=O)[C@H](Cc1c[nH]c2ccccc12)NC(=O)[C@H](CCSC)NC(C)=O)C(=O)N[C@H]1CSSC[C@@H](C(=O)N[C@@H](Cc2c[nH]c3ccccc23)C(=O)N2CCC[C@H]2C(N)=O)NC(=O)[C@H](CC(=O)O)NC(=O)[C@H](Cc2cnc[nH]2)NC(=O)[C@H](Cc2c[nH]c3ccccc23)NC(=O)[C@H](CC(N)=O)NC(=O)[C@H](CC(N)=O)NC1=O [compound 13, Ac-M-W-(L-Ala)-I-C(3)-N-N-W-H-D-C(3)-W-P-CONH2] (Ac-MWAICNNWHDCWP-NH2; disulfide 5-11)	7.00 to 8.00

Results, then the molecule that gave them:

pKd	Structure (SMILES)
> 9.00	CC(=O)N[C@@H](Cc1c[nH]c2ccccc12)C(=O)N[C@H](C(=O)N[C@@H](CC(C)(C)C)C(=O)N[C@H]1CSCSC[C@@H](C(=O)N[C@@H](Cc2c[nH]c3ccccc23)C(=O)N2CCC[C@H]2C(N)=O)NC(=O)[C@H](CC(=O)O)NC(=O)[C@H](CCCCNC(=O)C[C@H]2CC[C@H](NC(=O)CN3CCN(CC(=O)O)CCN(CC(=O)O)CCN(CC(=O)O)CC3)CC2)NC(=O)[C@H](Cc2ccc3ccccc3c2)NC(=O)[C@H](CC(N)=O)NC(=O)[C@H](CC2CCNCC2)NC1=O)[C@@H](C)O [compound 434, Ac-W-T-(t-Bu-Ala)-C(3)-[3-(4-piperidinyl)-Ala]-N-(2Nal)-Lys(Chx-DOTA)-D-C(3)-W-P-NH2] (Ac-WT[tBuAla]C[Ala(piperidin-4-yl)]N[2Nal]K(X7)DCWP-NH2; linker 4-10 via CH2)
> 9.00	CC(=O)N[C@@H](Cc1c[nH]c2ccccc12)C(=O)N[C@H](C(=O)N(C)[C@@H](CC(C)(C)C)C(=O)N[C@H]1CSCSC[C@@H](C(=O)N[C@@H](Cc2c[nH]c3ccccc23)C(=O)N2CCC[C@H]2C(N)=O)NC(=O)[C@H](CC(=O)O)NC(=O)[C@H](CCCCNC(=O)CN2CCN(CC(=O)O)CCN(CC(=O)O)CCN(CC(=O)O)CC2)NC(=O)[C@H](Cc2ccc3ccccc3c2)NC(=O)[C@H](CC(N)=O)NC(=O)[C@H](CC2CCN(CC(=O)O)CC2)NC1=O)[C@@H](C)O [compound 447] (Ac-WT[NMetBuAla]C[Ala(1-CH2CO2H-4-piperidyl)]N[2Nal]K(DOTA)DCWP-NH2; linker 4-10 via CH2)
7.00 to 8.00	CCCC[C@H](NC(C)=O)C(=O)N[C@@H](Cc1c[nH]c2ccccc12)C(=O)N[C@H](C(=O)N[C@H](C(=O)N[C@H]1CSSC[C@@H](C(=O)N[C@@H](Cc2c[nH]c3ccccc23)C(=O)N2CCC[C@H]2C(N)=O)NC(=O)[C@H](CC(=O)O)NC(=O)[C@H](Cc2cnc[nH]2)NC(=O)[C@H](Cc2c[nH]c3ccccc23)NC(=O)[C@H](CC(N)=O)NC(=O)[C@H](CC(N)=O)NC1=O)[C@@H](C)CC)[C@@H](C)O [compound 441, Ac-(L-Nle)-W-T-I-C(3)-N-N-W-H-D-C(3)-W-P-CONH2] (Ac-[Nle]WTICNNWHDCWP-NH2; disulfide 5-11)
> 9.00	CCCC[C@@H](C(=O)N[C@H]1CSSC[C@@H](C(=O)N[C@@H](Cc2c[nH]c3ccccc23)C(=O)N2CCC[C@H]2C(N)=O)NC(=O)[C@H](CC(=O)O)NC(=O)[C@H](CCCCNC(=O)CN2CCN(CC(=O)O)CCN(CC(=O)O)CCN(CC(=O)O)CC2)NC(=O)[C@H](Cc2ccc3ccccc3c2)NC(=O)[C@H](CC(N)=O)NC(=O)[C@H](CC2CCNCC2)NC1=O)N(C)C(=O)[C@@H](NC(=O)[C@H](Cc1c[nH]c2c(C)cccc12)NC(C)=O)[C@@H](C)O [compound 408, Ac-(7Me-Trp)-T-(NMe-Nle)-C(3)-[3-(4-piperidinyl)-Ala]-N-(2Nal)-Lys(DOTA)-D-C(3)-W-P-CONH2] (Ac-[Trp(7-Me)]T[NMeNle]C[Ala(piperidin-4-yl)]N[2Nal]K(DOTA)DCWP-NH2; disulfide 4-10)
> 9.00	CC(=O)NCCCC[C@@H](NC(=O)[C@@H]1CCCN1C(=O)[C@H](Cc1c[nH]c2ccccc12)NC(=O)[C@@H]1CSCSC[C@H](NC(=O)[C@H](CC(C)(C)C)NC(=O)[C@@H](NC(=O)[C@H](Cc2c[nH]c3ccccc23)NC(C)=O)[C@@H](C)O)C(=O)N[C@@H](CC2CCNCC2)C(=O)N[C@@H](CC(N)=O)C(=O)N[C@@H](Cc2ccc3ccccc3c2)C(=O)N[C@@H](CCCCNC(=O)CN2CCN(CC(=O)O)CCN(CC(=O)O)CCN(CC(=O)O)CC2)C(=O)N[C@@H](CC(=O)O)C(=O)N1)C(N)=O [compound 438, Ac-W-T-(t-Bu-Ala)-C(1)-[3-(4-piperidinyl)-Ala]-N-(2Nal)-Lys(DOTA)-D-C(1)-W-P-[D-Lys(Ac)]-CONH2] (Ac-WT[tBuAla]C[Ala(piperidin-4-yl)]N[2Nal]K(DOTA)DCWP[dK](Ac)-NH2; linker 4-10 via CH2)
